Measured values from patent US20260297542A1, “HERBICIDE RESISTANT PLANTS” (SYNGENTA CROP PROTECTION AG, priority 2023, published 2026).
Where “and” joins values, the source holds several entries; their conditions need not be identical. Equal entries are not always repeated.

What was measured:
[1] = target: T1, AtPPO1 S305L Y426V (SEQ ID NO.125) (Arabidopsis thaliana, UniProt P55826, S305L/Y426V); test: fluorescent Protoporphyrinogen Oxidase assay, crude extract; assay type: biochemical; settings: read-out: percentage inhibition
T1 construct: made in house; host or cells: E. coli BL21 (DE3) hemG, crude extract
T1 sequence (P55826 35-537 S305L/Y426V): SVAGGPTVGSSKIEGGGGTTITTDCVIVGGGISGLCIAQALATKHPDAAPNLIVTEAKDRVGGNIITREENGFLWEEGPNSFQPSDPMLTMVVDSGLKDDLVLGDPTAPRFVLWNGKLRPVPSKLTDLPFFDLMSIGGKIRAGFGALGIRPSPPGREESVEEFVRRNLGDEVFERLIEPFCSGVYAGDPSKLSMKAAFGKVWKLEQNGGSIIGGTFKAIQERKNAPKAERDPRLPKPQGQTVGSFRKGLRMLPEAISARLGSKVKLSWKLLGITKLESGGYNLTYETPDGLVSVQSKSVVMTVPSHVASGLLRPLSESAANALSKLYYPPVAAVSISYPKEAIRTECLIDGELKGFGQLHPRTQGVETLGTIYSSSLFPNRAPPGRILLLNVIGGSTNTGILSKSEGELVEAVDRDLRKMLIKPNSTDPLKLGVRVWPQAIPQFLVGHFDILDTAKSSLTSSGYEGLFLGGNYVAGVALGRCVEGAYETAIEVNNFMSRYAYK

[2] = tested on: tobacco plants containing pBin TMV AtPPO1; test: herbicide damage to transgenic tobacco; assay type: in vivo; settings: 120 g ai/ha, per transgenic event, 0 no visible damage, 100 complete death
Description: Populations of transgenic tobacco comprising 20-30 transgenic events per plant transformation constructs are generated as described in Example 4. These lines were clonally propagated and 1 clone per event was sprayed with PPO herbicides to confirm the herbicide resistance.
(§1) Herbicidal damage is visually assessed across the population and a herbicide damage score given at 7 and 14 days. A score of 0 indicates no visible damage or stunting whereas a score of 100 indicates a complete death of the plant. 20 transgenic events (i.e. individual transgenic plants) from each GM tobacco line are transplanted to soil 1 week prior to spraying with PPO inhibiting compounds. WT tobacco is included as a control.
as §1, with “damage was” for “damage is”, “line were” for “line are”

| Compound | inhibition at 0.1 ppm [1] [%] | inhibition at 1 ppm [1] [%] | inhibition at 10 ppm [1] [%] | inhibition at 100 ppm [1] [%] | percentage of damage ([2]; 7 DAT) | percentage of damage ([2]; 14 DAT) |
| --- | --- | --- | --- | --- | --- | --- |
| CCOC(=O)[C@]1(C)CC(c2cc(-n3c(=O)n(C)c(=S)n(C)c3=O)c(F)cc2Cl)=NO1 [Herbicide D, ethyl (5S)-3-[2-chloro-5-(3,5-dimethyl-2,6-dioxo-4-thioxo-1,3,5-triazinan-1-yl)-4-fluoro-phenyl]-5-methyl-4H-isoxazole-5-carboxylate] | 0 | 10 | 53 | 83 | 100% and 95% and 99% and 97% and 65% and 92% and 98% | 100% and 95% and 99% and 75% and 97% and 96% |
| CCOC(=O)C1(C)CC(c2cc(-n3c(=O)cc(C(F)(F)F)n(C)c3=O)c(F)cc2Cl)=NO1 (centres unmarked) [Herbicide C, 3-(2-chloro-4-fluoro-5-(3-methyl-2,6-dioxo-4-trifluoromethyl-3,6-dihydropyrimidin-1(2H)-yl)phenyl)-5-methyl-4,5-dihydroisoxazole-5-carboxylic acid ethyl ester] | 0 | 31 | 81 | 97 | 100% and 95% and 94% and 97% | 100% and 90% and 95% and 97% and 99% |
| CCOC(=O)COc1ncccc1Oc1cc(-n2c(=O)cc(C(F)(F)F)n(C)c2=O)c(F)cc1Cl [Herbicide A, epyrifenacil] | 0 | 11 | 63 | 87 | – | – |
| C#CCN1C(=O)C(F)(F)Oc2cc(F)c(-n3c(=O)n(C)c(=S)n(C)c3=O)cc21 [Herbicide B, trifludimoxazin] | 87 | 99 | 100 | 100 | 100% and 99% and 87% and 97% | 100% and 80% and 98% and 99% |
| CC(C)N(C)S(=O)(=O)NC(=O)c1cc(-n2c(=O)cc(C(F)(F)F)n(C)c2=O)c(F)cc1Cl [Herbicide E, saflufenacil] | 0 | 2 | 50 | 84 | – | – |
